# Key:
# [1] = 24-hour urinary uric acid excretion, open-label fixed-sequence clinical study (NCT01428284); format: in vivo, human; settings: for Increase of mean urinary urate excretion compared to baseline: canagliflozin alone; for Urine urate excretion, Mean / Urine urate excretion, Mean Change from Day−1: healthy subjects, 24-hour urine, canagliflozin 300 mg once daily from Day 1
# Source text: (§1) A single-center, open-label, fixed-sequence study to assess the effects of multiple-dose probenecid on multiple-dose of canagliflozin, in healthy subjects, was completed as described below (study NCT01428284) on clinicaltrials.gov registry website). The study consisted of 3 phases: (1) a Screening Phase of approximately 19 days (Day −21 to Day −3), (2) an Open-label Treatment Phase of 20 days (Day −2 to Day 18), and (3) a Follow-up phase (7 to 10 days after discharge on Day 18). The total duration of the study was approximately 49 days.
# (§2) Subjects with history of (or current) any of the following medical conditions were excluded: (a) Acute or chronic renal insufficiency (eGFR below 90 mL/min/1.73 m^2); (b) Kidney or bladder stones (nephrolithiasis); (c) Hyperuricosuria (>800 mg/day), or gout; and/or (d) Hyperuricemia (>6.8 mg/dL, 404 μmol/L). Reasons for subject withdrawal from the study could include the following: (a) Lost to follow-up; (b) Withdrawal of consent; (c) Withdrawal of consent for pharmacogenomic research (Part 1); (d) Subject was not in compliance with requirements of the study and prohibitions and restrictions; and/or (e) A subject could be discontinued from study treatment (final assessments were to be obtained) if the investigator believed that for safety reasons (eg, adverse event) it was in the best interest of the subject to stop study treatment.
# (§3) All study drugs were taken between 7:30 and 9:30 a.m. with 240 mL of noncarbonated water. Study drug was swallowed whole and not chewed, divided, dissolved or crushed. […] For each subject, on days when both canagliflozin and probenecid were administered, both doses were administered at approximately the same time.
# (§4) Canagliflozin was administered as a single 300-mg tablet on Days 1 to Day 17. Probenecid was administered b.i.d. as one 500-mg tablet from Day 15 to Day 17. On Day 14 and Day 17, subjects received study drug under fasted conditions, and standardized lunch approximately 4 hours after study drug administration. On all other study days, subjects received canagliflozin and/or probenecid 1 hour before they received a standardized meal. The study diet was standardized by the site dietician in order to minimize the effect on uric acid levels. Subjects were also advised not to consume high purine-enriched foods from screening to completion of the study.
# (§5) All laboratory testing was conducted by a licensed clinical laboratory (Physicians Reference Laboratory [PRL]), 7800 West 110th Street, Overland Park, Kans. 66210-2304). Clinical laboratory tests included, among others:
# (b) Urinary uric acid excretion: A 24-hour total urine was collected at the time points specified in the Time and Events Schedule of the study protocol. The samples were mixed thoroughly and stored between 2° C. and 8° C. until shipment.
# (§6) Laboratory data were summarized by type of laboratory test. Normal reference ranges and abnormal results were used in the summary of laboratory data. Descriptive statistics were calculated for each laboratory analyte at baseline, Day 18, and end-of-study.
# Table 2, below, lists mean urine uric acid excretion and calculated mean changes through the course of the study. FIG. 2 illustrates said mean uric acid excretion (±standard deviation) as a function of study day.
# [2] = Fasting serum urate levels, open-label fixed-sequence clinical study (NCT01428284); format: in vivo, human; settings: for Decrease of mean serum urate level from baseline: canagliflozin alone; for Serum urate level, Mean / Serum urate level, Mean Decrease: healthy subjects, canagliflozin 300 mg once daily from Day 1
# Source text: as §1, §2, §3, §4, §5
# (a) Serum chemistry: glucose, creatinine, blood urea nitrogen (BUN), total protein, total bilirubin, phosphate, albumin, calcium, fasting serum uric acid, sodium, potassium, chloride, magnesium, lactic acid dehydrogenase, alkaline phosphatase, alanine transaminase, aspartate transaminase, gamma-glutamyltransferase, bicarbonate, creatine phosphokinase, total cholesterol (screening only), and triglycerides (screening only); and
# as §6
# Table 1, below lists mean serum urate levels and calculated mean decrease through the course of the study. […] FIG. 1 illustrates said mean serum urate levels (±standard deviation) as a function of study day.
# [3] = cited from earlier work
structure (smiles),measurement,setting,value
Cc1ccc([C@@H]2O[C@H](CO)[C@@H](O)[C@H](O)[C@H]2O)cc1Cc1ccc(-c2ccc(F)cc2)s1 [canagliflozin],Increase of mean urinary urate excretion compared to baseline,[1]; Day 1,approximately 19%
same,Increase of mean urinary urate excretion compared to baseline,[1]; Day 2,~6%
same,Increase of mean urinary urate excretion compared to baseline,[1]; Day 13,~1%
same,"Urine urate excretion, Mean",[1]; Day 1,5.068 mmol/day
same,"Urine urate excretion, Mean Change from Day−1",[1]; Day 1,0.796 mmol/day
same,"Urine urate excretion, Mean",[1]; Day 2,4.544 mmol/day
same,"Urine urate excretion, Mean Change from Day−1",[1]; Day 2,0.273 mmol/day
same,"Urine urate excretion, Mean",[1]; Day 13,4.319 mmol/day
same,"Urine urate excretion, Mean Change from Day−1",[1]; Day 13,0.048 mmol/day
same,"Urine urate excretion, Mean",[1]; Day 14,4.208 mmol/day
same,"Urine urate excretion, Mean Change from Day−1",[1]; Day 14,-0.064 mmol/day
same,Decrease of mean serum urate level from baseline,[2]; Day 2,approximately 19%
same,Decrease of mean serum urate level from baseline,[2]; Day 3,~24%
same,Decrease of mean serum urate level from baseline,[2]; Day 14,~23%
same,"Serum urate level, Mean",[2]; Day 1,293.151 µmol/L
same,"Serum urate level, Mean Decrease",[2]; Day 1,-5.523 µmol/L
same,"Serum urate level, Mean",[2]; Day 2,241.580 µmol/L
same,"Serum urate level, Mean Decrease",[2]; Day 2,-57.650 µmol/L
same,"Serum urate level, Mean",[2]; Day 3,228.769 µmol/L
same,"Serum urate level, Mean Decrease",[2]; Day 3,-70.461 µmol/L
same,"Serum urate level, Mean",[2]; Day 14,229.684 µmol/L
same,"Serum urate level, Mean Decrease",[2]; Day 14,-69.546 µmol/L
Oc1ncnc2[nH]ncc12 [Allopurinol],Patients with side-effects,[3],up to 20%

# — patent US20160022632A1, “COMBINATION OF CANAGLIFLOZIN AND PROBENECID FOR THE TREAMENT OF HYPERURICEMIA” (JANSSEN PHARMACEUTICA NV, priority 2013, published 2016)
